Data: patent US20070225351A1, “Methods and compositions for controlling body weight and appetite” (priority 2002, published 2007)

How the values were obtained:
[1] = Toxicokinetic evaluation in rats; details: rat, in vivo; for AUC(0-t): Crl:CD(SD)IGS BR, po, 10 mg/kg/day, AUC0-24 h
Experimental: For toxicokinetic evaluation, all animals were observed twice daily for mortality and moribundity. Blood samples were collected from three animals/sex/group at 0 (pre-dose), 1, 2, 4, 8 and 24 hours after dose administration on study days 0 and 87. All toxicokinetic animals were euthanized and discarded following the final blood collection (study day 88).

[2] = in vivo; format: in vivo; details: for mean body weight, lower than control: study week 13
Experimental: Eighteen male and eighteen female beagle dogs were received from Ridglan Farms, Mt. Horeb, Wis. […] Each group consisted of four males and four females. All animals/sex/group were scheduled for the primary necropsy at the end of the 13-week treatment period.
The animals were observed twice daily for mortality and moribundity. Clinical examinations were performed daily at the time of dosing and approximately 1-2 and approximately 3 hours following dose administration. Detailed physical examinations were performed weekly. Clinical pathology evaluations (hematology, serum chemistry and urinalysis) were performed prior to the initiation of dose administration (study week-1) and prior to the scheduled necropsy (study week 13). Individual body weights were recorded weekly, beginning approximately two weeks prior to test article administration (study week-2). Mean body weights and mean body weight changes were calculated for each corresponding interval. Final body weights (fasted) were recorded prior to the scheduled necropsy. […] Gross lesions were also examined from the 2.0 and 6.0 mg/kg/day groups.

Cl.Clc1ccc([C@@]23CNC[C@@H]2C3)cc1Cl (single isomer, unassigned) [(+)-1-(3,4-dichlorophenyl)-3-azabicyclo[3.1.0]hexane hydrochloride]
AUC(0-t) ([1]; female): 14400 ng·h/mL
AUC(0-t) ([1]; male): 8130 ng·h/mL
exposure versus dose [1]: increased dose-dependently
mean total cumulative body weight change, lower than control ([2]; female dogs, 20 mg/kg/day, end of 13-week study): 65%
mean food consumption, lower than control ([2]; female dogs, 20 mg/kg/day, first week of dose administration): 23%
mean body weight, lower than control ([2]; female dogs, 20 mg/kg/day): 9%
weekly food consumption, MEAN ([2]; female dogs, 2.0 MG/KG/DAY group, WEEK −1 TO 0 (before dosing)): 295. C/ANIMAL/DAY
weekly food consumption, MEAN ([2]; female dogs, 2.0 MG/KG/DAY, WEEK 0 TO 1): 291. C/ANIMAL/DAY
weekly food consumption, MEAN ([2]; female dogs, 2.0 MG/KG/DAY, WEEK 1 TO 2): 319. C/ANIMAL/DAY
weekly food consumption, MEAN ([2]; female dogs, 2.0 MG/KG/DAY, WEEK 2 TO 3): 361. C/ANIMAL/DAY
weekly food consumption, MEAN ([2]; female dogs, 2.0 MG/KG/DAY, WEEK 3 TO 4): 358. C/ANIMAL/DAY
weekly food consumption, MEAN ([2]; female dogs, 2.0 MG/KG/DAY, WEEK 4 TO 5): 369. C/ANIMAL/DAY
weekly food consumption, MEAN ([2]; female dogs, 2.0 MG/KG/DAY, WEEK 5 TO 6): 360. C/ANIMAL/DAY
weekly food consumption, MEAN ([2]; female dogs, 2.0 MG/KG/DAY, WEEK 6 TO 7): 393. C/ANIMAL/DAY
weekly food consumption, MEAN ([2]; female dogs, 2.0 MG/KG/DAY, WEEK 7 TO 8): 360. C/ANIMAL/DAY
weekly food consumption, MEAN ([2]; female dogs, 2.0 MG/KG/DAY, WEEK 8 TO 9): 383. C/ANIMAL/DAY
weekly food consumption, MEAN ([2]; female dogs, 2.0 MG/KG/DAY, WEEK 9 TO 10): 375. C/ANIMAL/DAY
weekly food consumption, MEAN ([2]; female dogs, 2.0 MG/KG/DAY, WEEK 10 TO 11): 389. C/ANIMAL/DAY
weekly food consumption, MEAN ([2]; female dogs, 2.0 MG/KG/DAY, WEEK 12 TO 13): 355. C/ANIMAL/DAY
weekly food consumption, MEAN ([2]; female dogs, 6.0 MG/KG/DAY group, WEEK −1 TO 0 (before dosing)): 275. C/ANIMAL/DAY
weekly food consumption, MEAN ([2]; female dogs, 6.0 MG/KG/DAY, WEEK 0 TO 1): 247. C/ANIMAL/DAY
weekly food consumption, MEAN ([2]; female dogs, 6.0 MG/KG/DAY, WEEK 1 TO 2): 288. C/ANIMAL/DAY
weekly food consumption, MEAN ([2]; female dogs, 6.0 MG/KG/DAY, WEEK 2 TO 3): 307. C/ANIMAL/DAY
weekly food consumption, MEAN ([2]; female dogs, 6.0 MG/KG/DAY, WEEK 3 TO 4): 307. C/ANIMAL/DAY
weekly food consumption, MEAN ([2]; female dogs, 6.0 MG/KG/DAY, WEEK 4 TO 5): 350. C/ANIMAL/DAY
weekly food consumption, MEAN ([2]; female dogs, 6.0 MG/KG/DAY, WEEK 5 TO 6): 374. C/ANIMAL/DAY
weekly food consumption, MEAN ([2]; female dogs, 6.0 MG/KG/DAY, WEEK 6 TO 7): 381. C/ANIMAL/DAY
weekly food consumption, MEAN ([2]; female dogs, 6.0 MG/KG/DAY, WEEK 7 TO 8): 356. C/ANIMAL/DAY
weekly food consumption, MEAN ([2]; female dogs, 6.0 MG/KG/DAY, WEEK 8 TO 9): 368. C/ANIMAL/DAY
weekly food consumption, MEAN ([2]; female dogs, 6.0 MG/KG/DAY, WEEK 9 TO 10): 360. C/ANIMAL/DAY
weekly food consumption, MEAN ([2]; female dogs, 6.0 MG/KG/DAY, WEEK 10 TO 11): 367. C/ANIMAL/DAY
weekly food consumption, MEAN ([2]; female dogs, 6.0 MG/KG/DAY, WEEK 11 TO 12): 357. C/ANIMAL/DAY
weekly food consumption, MEAN ([2]; female dogs, 6.0 MG/KG/DAY, WEEK 12 TO 13): 331. C/ANIMAL/DAY
weekly food consumption, MEAN ([2]; female dogs, 20 MG/KG/DAY group, WEEK −1 TO 0 (before dosing)): 275. C/ANIMAL/DAY
weekly food consumption, MEAN ([2]; female dogs, 20 MG/KG/DAY, WEEK 0 TO 1): 212.* C/ANIMAL/DAY
weekly food consumption, MEAN ([2]; female dogs, 20 MG/KG/DAY, WEEK 1 TO 2): 295. C/ANIMAL/DAY
weekly food consumption, MEAN ([2]; female dogs, 20 MG/KG/DAY, WEEK 2 TO 3): 314. C/ANIMAL/DAY
weekly food consumption, MEAN ([2]; female dogs, 20 MG/KG/DAY, WEEK 3 TO 4): 337. C/ANIMAL/DAY
weekly food consumption, MEAN ([2]; female dogs, 20 MG/KG/DAY, WEEK 4 TO 5): 356. C/ANIMAL/DAY
weekly food consumption, MEAN ([2]; female dogs, 20 MG/KG/DAY, WEEK 5 TO 6): 331. C/ANIMAL/DAY
weekly food consumption, MEAN ([2]; female dogs, 20 MG/KG/DAY, WEEK 6 TO 7): 328. C/ANIMAL/DAY
weekly food consumption, MEAN ([2]; female dogs, 20 MG/KG/DAY, WEEK 7 TO 8): 325. C/ANIMAL/DAY
weekly food consumption, MEAN ([2]; female dogs, 20 MG/KG/DAY, WEEK 8 TO 9): 375. C/ANIMAL/DAY
weekly food consumption, MEAN ([2]; female dogs, 20 MG/KG/DAY, WEEK 9 TO 10): 322. C/ANIMAL/DAY
weekly food consumption, MEAN ([2]; female dogs, 20 MG/KG/DAY, WEEK 10 TO 11): 350. C/ANIMAL/DAY
weekly food consumption, MEAN ([2]; female dogs, 20 MG/KG/DAY, WEEK 11 TO 12): 305. C/ANIMAL/DAY
weekly food consumption, MEAN ([2]; female dogs, 20 MG/KG/DAY, WEEK 12 TO 13): 249. C/ANIMAL/DAY
mean total cumulative body weight change, lower than control ([2]; male dogs, 20 mg/kg/day, end of 13-week study (body weight loss)): 120%
mean food consumption, lower than control ([2]; male dogs, 20 mg/kg/day, first week of dose administration): 33%
food consumption, less than control values ([2]; male dogs, 20 mg/kg/day, generally, throughout the study): at least 10%
mean body weight, lower than control ([2]; male dogs, 20 mg/kg/day): 13%
mean food consumption, lower than control ([2]; male dogs, 20 mg/kg/day, study weeks 6 to 13 except week 8 to 9, not statistically significant): at least 10%
weekly food consumption, MEAN ([2]; male dogs, 2.0 MG/KG/DAY group, WEEK −1 TO 0 (before dosing)): 339. C/ANIMAL/DAY
weekly food consumption, MEAN ([2]; male dogs, 2.0 MG/KG/DAY, WEEK 0 TO 1): 320. C/ANIMAL/DAY
weekly food consumption, MEAN ([2]; male dogs, 2.0 MG/KG/DAY, WEEK 1 TO 2): 354. C/ANIMAL/DAY
weekly food consumption, MEAN ([2]; male dogs, 2.0 MG/KG/DAY, WEEK 2 TO 3): 373. C/ANIMAL/DAY
weekly food consumption, MEAN ([2]; male dogs, 2.0 MG/KG/DAY, WEEK 3 TO 4): 366. C/ANIMAL/DAY
weekly food consumption, MEAN ([2]; male dogs, 2.0 MG/KG/DAY, WEEK 4 TO 5): 369. C/ANIMAL/DAY
weekly food consumption, MEAN ([2]; male dogs, 2.0 MG/KG/DAY, WEEK 5 TO 6): 360. C/ANIMAL/DAY
weekly food consumption, MEAN ([2]; male dogs, 2.0 MG/KG/DAY, WEEK 6 TO 7): 393. C/ANIMAL/DAY
weekly food consumption, MEAN ([2]; male dogs, 2.0 MG/KG/DAY, WEEK 7 TO 8): 360. C/ANIMAL/DAY
weekly food consumption, MEAN ([2]; male dogs, 2.0 MG/KG/DAY, WEEK 8 TO 9): 388. C/ANIMAL/DAY
weekly food consumption, MEAN ([2]; male dogs, 2.0 MG/KG/DAY, WEEK 9 TO 10): 375. C/ANIMAL/DAY
weekly food consumption, MEAN ([2]; male dogs, 2.0 MG/KG/DAY, WEEK 10 TO 11): 389. C/ANIMAL/DAY
weekly food consumption, MEAN ([2]; male dogs, 2.0 MG/KG/DAY, WEEK 12 TO 13): 355. C/ANIMAL/DAY
weekly food consumption, MEAN ([2]; male dogs, 6.0 MG/KG/DAY group, WEEK −1 TO 0 (before dosing)): 331. C/ANIMAL/DAY
weekly food consumption, MEAN ([2]; male dogs, 6.0 MG/KG/DAY, WEEK 0 TO 1): 351. C/ANIMAL/DAY
weekly food consumption, MEAN ([2]; male dogs, 6.0 MG/KG/DAY, WEEK 1 TO 2): 370. C/ANIMAL/DAY
weekly food consumption, MEAN ([2]; male dogs, 6.0 MG/KG/DAY, WEEK 3 TO 4): 380. C/ANIMAL/DAY
weekly food consumption, MEAN ([2]; male dogs, 6.0 MG/KG/DAY, WEEK 4 TO 5): 350. C/ANIMAL/DAY
weekly food consumption, MEAN ([2]; male dogs, 6.0 MG/KG/DAY, WEEK 5 TO 6): 374. C/ANIMAL/DAY
weekly food consumption, MEAN ([2]; male dogs, 6.0 MG/KG/DAY, WEEK 6 TO 7): 381. C/ANIMAL/DAY
weekly food consumption, MEAN ([2]; male dogs, 6.0 MG/KG/DAY, WEEK 7 TO 8): 356. C/ANIMAL/DAY
weekly food consumption, MEAN ([2]; male dogs, 6.0 MG/KG/DAY, WEEK 8 TO 9): 368. C/ANIMAL/DAY
weekly food consumption, MEAN ([2]; male dogs, 6.0 MG/KG/DAY, WEEK 9 TO 10): 360. C/ANIMAL/DAY
weekly food consumption, MEAN ([2]; male dogs, 6.0 MG/KG/DAY, WEEK 10 TO 11): 367. C/ANIMAL/DAY
weekly food consumption, MEAN ([2]; male dogs, 6.0 MG/KG/DAY, WEEK 11 TO 12): 357. C/ANIMAL/DAY
weekly food consumption, MEAN ([2]; male dogs, 6.0 MG/KG/DAY, WEEK 12 TO 13): 331. C/ANIMAL/DAY
weekly food consumption, MEAN ([2]; male dogs, 20 MG/KG/DAY group, WEEK −1 TO 0 (before dosing)): 337. C/ANIMAL/DAY
weekly food consumption, MEAN ([2]; male dogs, 20 MG/KG/DAY, WEEK 0 TO 1): 228.* C/ANIMAL/DAY
weekly food consumption, MEAN ([2]; male dogs, 20 MG/KG/DAY, WEEK 1 TO 2): 319. C/ANIMAL/DAY
weekly food consumption, MEAN ([2]; male dogs, 20 MG/KG/DAY, WEEK 2 TO 3): 326. C/ANIMAL/DAY
weekly food consumption, MEAN ([2]; male dogs, 20 MG/KG/DAY, WEEK 3 TO 4): 357. C/ANIMAL/DAY
weekly food consumption, MEAN ([2]; male dogs, 20 MG/KG/DAY, WEEK 4 TO 5): 356. C/ANIMAL/DAY
weekly food consumption, MEAN ([2]; male dogs, 20 MG/KG/DAY, WEEK 5 TO 6): 331. C/ANIMAL/DAY
weekly food consumption, MEAN ([2]; male dogs, 20 MG/KG/DAY, WEEK 6 TO 7): 328. C/ANIMAL/DAY
weekly food consumption, MEAN ([2]; male dogs, 20 MG/KG/DAY, WEEK 7 TO 8): 325. C/ANIMAL/DAY
weekly food consumption, MEAN ([2]; male dogs, 20 MG/KG/DAY, WEEK 8 TO 9): 375. C/ANIMAL/DAY
weekly food consumption, MEAN ([2]; male dogs, 20 MG/KG/DAY, WEEK 9 TO 10): 322. C/ANIMAL/DAY
weekly food consumption, MEAN ([2]; male dogs, 20 MG/KG/DAY, WEEK 10 TO 11): 350. C/ANIMAL/DAY
weekly food consumption, MEAN ([2]; male dogs, 20 MG/KG/DAY, WEEK 11 TO 12): 305. C/ANIMAL/DAY
weekly food consumption, MEAN ([2]; male dogs, 20 MG/KG/DAY, WEEK 12 TO 13): 249. C/ANIMAL/DAY
